Source: PMC8321398, “The discovery of a novel series of compounds with single-dose efficacy against juvenile and adult Schistosoma species” (PLoS Neglected Tropical Diseases, 2021)

Tests used:
[1] = Stability in plasma; assay type: in vitro ADME; details: 37°C for 3 h
[2] = system: S. haematobium adult; assay: In vitro adult S. haematobium worm assay; assay type: cell-based; details: for EC50: Schistosoma haematobium, S. haematobium, 120 h incubation, read-out: Sh adult EC50; for Potency ratio Sh/Sm: adult EC50 S. haematobium / S. mansoni
Excerpt: (§1) The Puerto Rican strain of S. mansoni was maintained in Biomphalaria glabrata and CD1 mice. Oncomelania hupensis (hupensis) infected with S. japonicum (Chinese strain) and Bulinus truncatus (truncatus) infected with Egyptian strain S. haematobium were obtained from BEI Resources, NIAID, NIH. Infection of mice for worm recovery was as previously described except that, whereas cercariae of S. mansoni and S. haematobium were obtained by shedding from infected snails under lights, cercariae of S. japonicum were obtained by gently crushing the snails. Furthermore, adult S. haematobium were recovered after 12 weeks following mouse infection.
(§2) In vitro efficacy was carried out as previously described. In brief, worms were recovered from infected mice by portal perfusion 3 weeks (for juveniles) or 6 weeks (for adults) post-infection using warm perfusion medium (Dulbecco’s Modified Eagle’s Medium [DMEM], 2mM L-glutamine, 100 Units/ml penicillin, 100μg/ml streptomycin, 20mM Hepes, 10 Units/ml heparin [Sigma, UK]). Worms were washed free of red blood cells using the perfusion medium, and finally suspended in complete medium (cDMEM: DMEM, 2mM L-glutamine, 100 Units/ml penicillin, 100μg/ml streptomycin, 10% FCS). The juvenile assays were carried out in 96-well plates, each well containing 6–8 worms in 200 μL cDMEM. The adult worm assay was in 24-well plates, each well containing 3 worm pairs in 1mL cDMEM. Both the juvenile and adult worm cultures were kept at 37° C, in an atmosphere of 5% CO2. Drug effects were determined on day 5 following drug treatment by assessing the viability of individual worms as described in [14].

[3] = biological target: T1, Kv1.5 (Homo sapiens, UniProt P22460); assay: Ion channel activity (Metrion), Kv1.5, QPatch; assay type: cell-based; details: dose-response up to 10 μM
T1 construct: Metrion biosciences
T1 sequence (P22460 whole entry): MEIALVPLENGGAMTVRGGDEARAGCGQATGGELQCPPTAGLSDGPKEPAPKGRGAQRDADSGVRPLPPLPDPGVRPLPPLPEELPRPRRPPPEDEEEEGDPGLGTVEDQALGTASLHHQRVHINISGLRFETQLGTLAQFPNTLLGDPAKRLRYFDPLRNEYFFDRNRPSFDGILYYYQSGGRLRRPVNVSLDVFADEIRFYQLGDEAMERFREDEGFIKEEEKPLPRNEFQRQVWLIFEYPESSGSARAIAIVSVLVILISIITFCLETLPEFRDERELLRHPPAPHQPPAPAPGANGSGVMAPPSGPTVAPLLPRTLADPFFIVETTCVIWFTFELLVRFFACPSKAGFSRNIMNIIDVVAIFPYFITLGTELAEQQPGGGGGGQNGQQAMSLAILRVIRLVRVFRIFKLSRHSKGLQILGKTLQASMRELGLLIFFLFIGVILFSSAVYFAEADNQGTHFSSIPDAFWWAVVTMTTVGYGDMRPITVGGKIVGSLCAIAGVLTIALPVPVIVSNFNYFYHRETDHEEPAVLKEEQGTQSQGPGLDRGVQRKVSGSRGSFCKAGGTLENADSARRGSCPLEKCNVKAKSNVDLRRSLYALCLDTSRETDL
Procedure: (§3) Ion channel activity. Activity of compounds against ion channels was assessed by Metrion biosciences, Cambridge, CB21 6AD, UK in dose-response experiments (n = 2) up to 10 μM compound concentration with standards & equipment as listed for each ion channel (hERG–verapamil—QPatch, Nav1.5 –amitryptiline—QPatch, Kv1.5 –transDSC—QPatch, Cav1.2 –nimodipine—Flex).

[4] = biological target: T2, Cav1.2 (Homo sapiens, UniProt Q13936); assay: Ion channel activity (Metrion), Cav1.2, Flex; assay type: cell-based; details: dose-response up to 10 μM
T2 construct: Metrion biosciences
T2 sequence (Q13936 whole entry): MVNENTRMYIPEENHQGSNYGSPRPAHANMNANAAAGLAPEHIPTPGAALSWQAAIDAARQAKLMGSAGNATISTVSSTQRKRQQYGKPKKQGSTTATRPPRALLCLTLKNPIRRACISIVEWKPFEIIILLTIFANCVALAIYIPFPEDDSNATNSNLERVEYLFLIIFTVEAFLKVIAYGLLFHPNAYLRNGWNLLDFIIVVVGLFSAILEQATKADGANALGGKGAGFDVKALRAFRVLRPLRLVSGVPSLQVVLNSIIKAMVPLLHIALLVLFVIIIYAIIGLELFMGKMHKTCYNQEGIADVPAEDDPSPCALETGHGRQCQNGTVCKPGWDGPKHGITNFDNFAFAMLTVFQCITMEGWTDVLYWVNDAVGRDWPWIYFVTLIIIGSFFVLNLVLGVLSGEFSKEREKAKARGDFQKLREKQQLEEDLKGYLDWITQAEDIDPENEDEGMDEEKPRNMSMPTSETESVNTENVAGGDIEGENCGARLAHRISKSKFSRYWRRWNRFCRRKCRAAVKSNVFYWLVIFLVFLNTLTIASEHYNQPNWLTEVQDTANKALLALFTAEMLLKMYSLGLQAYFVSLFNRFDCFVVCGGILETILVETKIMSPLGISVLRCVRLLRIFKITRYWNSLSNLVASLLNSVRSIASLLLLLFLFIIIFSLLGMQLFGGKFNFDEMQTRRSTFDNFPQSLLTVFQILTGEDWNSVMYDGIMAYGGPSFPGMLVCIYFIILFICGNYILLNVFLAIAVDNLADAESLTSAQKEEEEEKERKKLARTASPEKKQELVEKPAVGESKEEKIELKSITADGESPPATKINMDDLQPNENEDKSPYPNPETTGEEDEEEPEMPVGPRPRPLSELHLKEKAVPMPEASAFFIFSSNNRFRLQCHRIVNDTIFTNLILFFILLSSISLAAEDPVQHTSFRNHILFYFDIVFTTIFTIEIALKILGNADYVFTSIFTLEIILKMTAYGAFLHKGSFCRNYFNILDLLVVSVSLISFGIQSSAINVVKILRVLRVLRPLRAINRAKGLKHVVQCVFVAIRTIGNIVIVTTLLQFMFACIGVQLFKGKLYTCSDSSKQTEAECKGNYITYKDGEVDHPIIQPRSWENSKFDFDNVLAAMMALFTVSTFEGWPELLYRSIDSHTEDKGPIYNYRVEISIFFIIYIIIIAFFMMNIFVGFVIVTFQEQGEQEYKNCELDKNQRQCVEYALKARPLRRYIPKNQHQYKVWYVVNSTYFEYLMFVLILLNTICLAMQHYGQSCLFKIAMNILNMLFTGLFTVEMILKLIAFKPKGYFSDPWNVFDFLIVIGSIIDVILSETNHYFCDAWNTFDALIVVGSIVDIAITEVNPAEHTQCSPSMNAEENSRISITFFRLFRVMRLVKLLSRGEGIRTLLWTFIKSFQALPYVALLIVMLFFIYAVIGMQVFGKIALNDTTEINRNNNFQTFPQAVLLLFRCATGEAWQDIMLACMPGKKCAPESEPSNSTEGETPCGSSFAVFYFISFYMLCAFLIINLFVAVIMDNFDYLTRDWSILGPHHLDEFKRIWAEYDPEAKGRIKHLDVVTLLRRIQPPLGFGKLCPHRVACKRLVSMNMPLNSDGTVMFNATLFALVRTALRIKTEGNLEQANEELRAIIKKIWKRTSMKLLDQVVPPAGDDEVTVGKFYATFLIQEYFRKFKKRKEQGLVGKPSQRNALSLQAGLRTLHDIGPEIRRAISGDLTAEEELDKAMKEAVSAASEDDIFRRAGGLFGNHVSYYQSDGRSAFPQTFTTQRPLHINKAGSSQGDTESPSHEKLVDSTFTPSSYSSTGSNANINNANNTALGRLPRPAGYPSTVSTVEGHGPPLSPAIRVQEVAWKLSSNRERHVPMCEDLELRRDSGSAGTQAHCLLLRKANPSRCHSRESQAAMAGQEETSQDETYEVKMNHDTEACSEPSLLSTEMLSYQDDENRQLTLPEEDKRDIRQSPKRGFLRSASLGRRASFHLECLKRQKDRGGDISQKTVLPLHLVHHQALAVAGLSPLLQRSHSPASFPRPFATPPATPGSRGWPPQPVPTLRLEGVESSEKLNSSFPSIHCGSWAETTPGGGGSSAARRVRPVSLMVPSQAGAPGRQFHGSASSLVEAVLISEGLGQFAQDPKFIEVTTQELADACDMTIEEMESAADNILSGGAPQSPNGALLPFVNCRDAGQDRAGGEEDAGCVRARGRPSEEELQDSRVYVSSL
T2 sequence (Q08289 whole entry partner): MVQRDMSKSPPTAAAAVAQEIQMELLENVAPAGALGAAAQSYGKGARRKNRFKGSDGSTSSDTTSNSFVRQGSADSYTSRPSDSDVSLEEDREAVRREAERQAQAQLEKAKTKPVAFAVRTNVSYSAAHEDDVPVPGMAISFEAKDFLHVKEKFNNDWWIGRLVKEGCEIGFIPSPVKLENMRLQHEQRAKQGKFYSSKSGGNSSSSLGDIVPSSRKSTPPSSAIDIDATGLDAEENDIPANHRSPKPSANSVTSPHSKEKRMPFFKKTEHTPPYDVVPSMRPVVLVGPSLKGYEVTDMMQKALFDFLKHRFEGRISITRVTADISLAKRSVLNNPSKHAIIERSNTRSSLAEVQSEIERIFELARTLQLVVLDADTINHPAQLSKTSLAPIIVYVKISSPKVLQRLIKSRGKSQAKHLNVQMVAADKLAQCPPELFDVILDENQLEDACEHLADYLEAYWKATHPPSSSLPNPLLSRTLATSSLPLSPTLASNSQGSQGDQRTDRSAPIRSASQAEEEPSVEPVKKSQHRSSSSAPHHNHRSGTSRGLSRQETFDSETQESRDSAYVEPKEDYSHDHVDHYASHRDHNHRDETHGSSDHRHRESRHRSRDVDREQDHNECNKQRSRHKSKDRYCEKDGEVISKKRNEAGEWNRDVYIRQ
T2 sequence (P54289 25-956 partner limits assumed): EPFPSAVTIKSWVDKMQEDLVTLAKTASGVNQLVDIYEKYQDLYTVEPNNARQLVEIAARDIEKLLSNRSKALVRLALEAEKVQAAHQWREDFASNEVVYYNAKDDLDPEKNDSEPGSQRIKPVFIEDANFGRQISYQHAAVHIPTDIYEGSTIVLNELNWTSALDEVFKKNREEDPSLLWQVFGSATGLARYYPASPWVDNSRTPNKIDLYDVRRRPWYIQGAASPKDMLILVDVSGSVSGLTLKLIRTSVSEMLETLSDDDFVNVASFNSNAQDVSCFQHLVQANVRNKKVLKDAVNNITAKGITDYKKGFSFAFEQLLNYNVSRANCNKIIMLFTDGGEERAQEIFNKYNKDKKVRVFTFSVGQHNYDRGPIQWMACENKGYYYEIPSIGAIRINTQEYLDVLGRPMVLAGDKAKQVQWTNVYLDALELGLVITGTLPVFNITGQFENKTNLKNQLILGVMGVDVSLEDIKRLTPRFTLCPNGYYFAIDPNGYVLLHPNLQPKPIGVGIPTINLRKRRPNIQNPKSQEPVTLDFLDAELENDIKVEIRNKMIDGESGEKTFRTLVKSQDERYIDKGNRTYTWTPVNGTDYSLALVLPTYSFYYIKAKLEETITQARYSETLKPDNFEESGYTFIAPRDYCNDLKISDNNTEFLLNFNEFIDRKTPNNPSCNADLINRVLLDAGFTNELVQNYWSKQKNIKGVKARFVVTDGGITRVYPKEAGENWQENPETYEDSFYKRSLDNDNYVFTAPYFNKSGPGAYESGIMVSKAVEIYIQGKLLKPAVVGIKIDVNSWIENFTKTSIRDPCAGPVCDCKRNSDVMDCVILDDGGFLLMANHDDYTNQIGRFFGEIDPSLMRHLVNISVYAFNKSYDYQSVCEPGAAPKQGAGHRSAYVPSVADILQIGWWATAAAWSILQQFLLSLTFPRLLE
T2 sequence (P54289 957-1103 partner limits assumed): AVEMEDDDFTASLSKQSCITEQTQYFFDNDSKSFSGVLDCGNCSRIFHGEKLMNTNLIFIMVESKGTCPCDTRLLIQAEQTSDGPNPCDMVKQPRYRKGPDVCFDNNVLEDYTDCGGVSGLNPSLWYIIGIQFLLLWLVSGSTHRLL
Procedure: as §3

[5] = biological target: T3, hERG (Homo sapiens, UniProt Q12809); assay: Ion channel activity (Metrion), hERG, QPatch; assay type: cell-based; details: dose-response up to 10 μM
T3 construct: Metrion biosciences
Procedure: as §3

[6] = biological target: T4, Nav1.5 (Homo sapiens, UniProt Q14524); assay: Ion channel activity (Metrion), Nav1.5, QPatch; assay type: cell-based; details: dose-response up to 10 μM
T4 construct: Metrion biosciences
Procedure: as §3

[7] = system: S. japonicum adult; assay: In vitro adult S. japonicum worm assay; assay type: cell-based; details: for EC50: Schistosoma japonicum, S. japonicum, 120 h incubation, read-out: Sj adult EC50; for Potency ratio Sj/Sm: adult EC50 S. japonicum / S. mansoni
Excerpt: as §1, §2

[8] = Stability in phosphate buffer and simulated gastric fluid; assay type: physicochemical; details: for degradation in simulated gastric fluid: pH 1.2, 37°C for 3 h; for degradation in phosphate buffer: pH 8.0, 37°C for 3 h
[9] = in vivo; details: rat
[10] = system: panel of 50 human kinases; assay: Kinase panel activity; assay type: biochemical; details: 1 μM
Procedure: Kinase panel activity: Activity of compounds at 1 μM was assessed against a panel of 50 kinase enzymes (MKK1, JNK1, p38a MAPK, RSK1, PDK1, PKBa, SGK1, S6K1, PKA, ROCK 2, PRK2, PKCa, PKD1, MSK1, CAMKKb, CAMK1, SmMLCK, CHK2, GSK3b, PLK1, Aurora B, LKB1, AMPK (hum), MARK3, CK1δ, CK2, DYRK1A, NEK6, TBK1, PIM1, SRPK1, EF2K, HIPK2, PAK4, MST2, MLK3, TAK1, IRAK4, RIPK2, TTK, Src, Lck, BTK, JAK3, SYK, EPH-A2, HER4, IGF-1R, TrkA, VEG-FR) carried out by the MRC Protein Phosphorylation and Ubiquitinylation Unit at the University of Dundee, Dundee, DD1 5EH, UK.

[11] = system: S. mansoni worms; assay: In vitro potency assay with varied FBS level; assay type: cell-based; details: Schistosoma mansoni
Excerpt: These early experiments also allowed us to use the PK Tool to predict the dose to use in the mouse efficacy models. As part of the prediction we need to recognise that the measured in vitro potency will be different from that in whole blood. […] They also display high protein binding in plasma, assay media and microsomal stability assays. […] Measurement of binding of LSHTM-3520 in the assay medium gave a free fraction, Fu of 0.0014. An experiment was run using LSHTM-3520 to determine whether the potency shift on varying the plasma protein level in the in vitro assay accords with prediction.

[12] = Observation of mice for adverse clinical signs / ill effects; assay type: in vivo; details: 200 mg/kg single oral dose, one mouse 400 mg/kg
Procedure: Prior to in vivo efficacy experiments, a single animal was given a dose of drug (using the same formulation) that was twice as large as that planned for use in the efficacy experiments and was observed periodically for adverse clinical signs for 24h by trained veterinarians. Adverse clinical signs checked include postural defect, vocalization, oculo-nasal discharge, hypersalivation, change in activity, abnormal gait, respiration and pulse, piloerection, loss of pupillary reflex, eyelid reflex, chromodacryorrhea, reaction to handling, tremor, convulsions, prostration, diarrhoea, cachexia, emaciation. […] In vivo efficacy was assessed in female CD1 mice using methods based on those previously described. Mice were infected subcutaneously with 150 cercariae. Test compounds were suspended in 7% Tween-80 / 3% Ethanol / double distilled water and drug dispersal was facilitated by vortexing and using a sonicating water bath (Formulation “Aqueous”). Alternatively, drugs were first dissolved in DMSO, then diluted with corn oil to give a 1:19 DMSO:corn oil solution/suspension of test compound (Formulation “Corn oil”). […] Worms were recovered by portal perfusion with citrate saline 8–14 days post treatment and counted. Differences between groups relative to the non-drug treated controls were assessed for statistical significance by Student’s unpaired t-test using GraphPad Prism Software. […]

| SMILES | degradation in plasma [1] | EC50 [2] [nM] | Potency ratio Sh/Sm [2] | inhibition of Kv1.5 [3] | inhibition of Cav1.2 [4] | inhibition of hERG [5] | inhibition of Nav1.5 [6] | EC50 [7] [nM] | Potency ratio Sj/Sm [7] | degradation in simulated gastric fluid [8] | degradation in phosphate buffer [8] | AUC(0-inf) ([9]; iv, 1 mg/kg) [ng·h/mL] | Vd ([9]; iv, 1 mg/kg) [L/kg] | bioavailability ([9]; po, 10 mg/kg) [%] | inhibition, panel of 50 human kinases [10] [%] | EC50 ([11]; 3% FBS) [nM] | EC50 ([11]; 10% FBS) [nM] | EC50 ([11]; 30% FBS) [nM] | issues observed with the animals exposed [12] |
| --- | --- | --- | --- | --- | --- | --- | --- | --- | --- | --- | --- | --- | --- | --- | --- | --- | --- | --- | --- |
| CC(C)c1cc(-c2cn3c(-c4ccc5[nH]ncc5c4F)c(C4CC4)nc3cn2)ccc1F [LSHTM-3686] | No degradation | 3.7 | 0.7 | Neither LSHTM-3645 nor LSHTM-3686 showed any inhibition | Neither LSHTM-3645 nor LSHTM-3686 showed any inhibition | Neither LSHTM-3645 nor LSHTM-3686 showed any inhibition | Neither LSHTM-3645 nor LSHTM-3686 showed any inhibition | 46.9 | 8.7 | No degradation | No degradation |  |  |  |  |  |  |  |  |
| Fc1ccc(-c2cn3c(-c4ccc5[nH]ncc5c4F)c(C(F)(F)F)nc3cn2)cc1C(F)(F)C(F)(F)F [LSHTM-3645] | No degradation | 6.5 | 0.7 | Neither LSHTM-3645 nor LSHTM-3686 showed any inhibition | Neither LSHTM-3645 nor LSHTM-3686 showed any inhibition | Neither LSHTM-3645 nor LSHTM-3686 showed any inhibition | Neither LSHTM-3645 nor LSHTM-3686 showed any inhibition | 129 | 13.3 | No degradation | No degradation |  |  |  |  |  |  |  |  |
| Fc1ccc(-c2cn3c(-c4ccc5[nH]ncc5c4F)c(C(F)(F)F)nc3cn2)cc1C(F)(F)F [LSHTM-3642, 3-(4-fluoro-1H-indazol-5-yl)-6-(4-fluoro-3-(trifluoromethyl)phenyl)-2-(trifluoromethyl)imidazo[1,2-a]pyrazine] |  | 23 |  |  |  |  |  | 389 |  |  |  | 5000 | 8.8 | 67 | ≤ 25 |  |  |  |  |
| Fc1c(-c2c(C(F)(F)F)nc3cnc(-c4cccc(C(F)(F)C(F)(F)F)c4)cn23)ccc2[nH]ncc12 [LSHTM-3608] |  | 9.3 | 0.6 |  |  |  |  | 95.2 | 6.2 |  |  |  |  |  |  |  |  |  |  |
| CC(C)c1nc2cnc(-c3ccc(F)c(C(F)(F)F)c3)cn2c1-c1ccc2[nH]ncc2c1F [LSHTM-3604] |  |  |  |  |  |  |  |  |  |  |  |  |  |  | ≤ 25 |  |  |  |  |
| CC(C)c1nc2cnc(-c3ccc(F)c(C(F)(F)F)c3)cn2c1-c1c(F)cc(O)cc1F [LSHTM-3520] |  | 17.9 | 0.4 |  |  |  |  | 73.5 | 1.6 |  |  |  |  |  | ≤ 25 | 8 | 24.4 | 75 | no issues observed |
